Article PMC4727781, “Tanzawaic Acids, a Chemically Novel Set of Bacterial Conjugation Inhibitors” (PLoS ONE, 2016)
Where two headings read alike, the source gives them in different places.

Experiments:
S. aureus CECT 794 = experiment: antibacterial activity, microtiter broth-dilution, S. aureus; type: cell-based; settings: Staphylococcus aureus, CECT794, mean of three independent experiments, read-out: Toxic-IC90 Saur
Description: (§1) Cell culture cytotoxicity assays were performed as described using human foreskin fibroblasts ATCC SCRC-1041 [38], lung carcinoma cells A549 [39], colorectal carcinoma cells HCT-116 [40], pancreatic adenocarcinoma cells PNS1 [41] or glioblastoma multiforme cells T98G [42]. Antibacterial activity was determined using a conventional microtiter broth-dilution technique for two reference strains, S. aureus CECT 794 and M. smegmatis DSMZ 43756. Antifungal activity was measured using the reference method antifungal broth dilution susceptibility test (National Committee for Clinical Laboratory Standars) against two species: A. nidulans (Microorganisms Collection of Biomar Microbial Technologies) and C. albicans CECT 1394.

[1] = tested on: colorectal carcinoma cells HCT-116; experiment: cell culture cytotoxicity assay, HCT-116; type: cell-based; settings: Homo sapiens, mean of three independent experiments, read-out: Toxic-IC50 HCT-116
Description: as §1

[2] = tested on: PSN1 pancreatic adenocarcinoma cells; experiment: cell culture cytotoxicity assay, PSN1; type: cell-based; settings: Homo sapiens, mean of three independent experiments, read-out: Toxic-IC50 PSN1
Description: as §1

[3] = tested on: R388 conjugation (R388 derivative pJC01); design: method as in PMID 26330514; settings: read-out: COIN-IC50; cited from earlier work
[4] = tested on: lung carcinoma cells A549; experiment: cell culture cytotoxicity assay, A549; type: cell-based; settings: Homo sapiens, mean of three independent experiments, read-out: Toxic-IC50 A549
Description: as §1

C. albicans CECT 1394 = experiment: antifungal broth dilution susceptibility test, C. albicans; type: cell-based; settings: Candida albicans, CECT1394, mean of three independent experiments, read-out: Toxic-IC90 Calb
Description: as §1

[5] = tested on: human foreskin fibroblasts ATCC SCRC-1041; experiment: cell culture cytotoxicity assay, fibroblasts; type: cell-based; settings: Fibroblast, mean of three independent experiments, read-out: Toxic-IC50 Fibroblasts
Description: as §1

A. nidulans = experiment: antifungal broth dilution susceptibility test, A. nidulans; type: cell-based; settings: Aspergillus nidulans, mean of three independent experiments, read-out: Toxic-IC90 Anid
Description: as §1

[6] = tested on: glioblastoma multiforme cells T98G; experiment: cell culture cytotoxicity assay, T98G; type: cell-based; settings: Homo sapiens, mean of three independent experiments, read-out: Toxic-IC50 T98G
Description: as §1

M. smegmatis DSMZ 43756 = experiment: antibacterial activity, microtiter broth-dilution, M. smegmatis; type: cell-based, Mycobacterium smegmatis; settings: Mycolicibacterium smegmatis, DSMZ43756, mean of three independent experiments, read-out: Toxic-IC90 Msme
Description: as §1

[7] = tested on: bacterial and fungal strains; experiment: antibacterial and antifungal activities (summary statement); type: cell-based; settings: summary of Table 1; read-out: toxic-IC90 values, antibacterial and antifungal activities
Description: as §1

[8] = tested on: IncW plasmid R388 (derivative pSU2007::Tnlux) conjugation; settings: COIN threshold; cited from earlier work
[9] = tested on: R388 conjugation (R388 derivative pJC01); experiment: fluorescence-based HTC assay; type: cell-based, E. coli; settings: for IC50: Escherichia coli, read-out: COIN-IC50
Paecilomyces variotii = tested on: Paecilomyces variotii; design: method as in PMID 24605144; settings: at a concentration of 185 μM; cited from earlier work
[10] = tested on: IncW plasmid R388 conjugation; experiment: plate-conjugation assay, R388; type: cell-based, E. coli; settings: for COIN activity on R388 conjugation (CF): 1 mM
Description: (§2) For the plate-mating procedure, a 200 μl mixture of equal volumes of donor and recipient cultures previously washed, both in stationary phase, was centrifuged and resuspended in 15 μl LB-broth. 5 μl of this mixture were placed on top of 96-well microtiter plate wells containing 150 μl LB-agar (± COINs) and conjugation was allowed to proceed, in general, for 1 h at 37°C. The temperature-sensitive IncH plasmid drR27 was allowed to conjugate for 2 h at 25°C [35]. Bacteria were then resuspended in 150 μl M9 broth and corresponding dilutions were plated on selective media. CF was calculated as the number of transconjugant cells per donor, whereas MF was calculated as the number of cells receiving the mobilizable plasmid per donor. Since this type of frequency data were log-normally distributed, means are calculated using decimal logarithms of data.

Phytophthora infestans = settings: at comparable concentrations; cited from earlier work
Mucor miehei = tested on: Mucor miehei; design: method as in PMID 24605144; settings: at a concentration of 185 μM; cited from earlier work
Magnaporthe oryzae = settings: read-out: toxic-IC50, inhibition of conidial germination; cited from earlier work
HeLaS3 cells = tested on: HeLaS3 cells; design: method as in PMID 24605144; settings: at a concentration of 185 μM; cited from earlier work
Botrytis cinerea = tested on: Botrytis cinerea; design: method as in PMID 24605144; settings: at comparable concentrations; cited from earlier work
[11] = tested on: superoxide anion production; settings: cited from earlier work
Brevibacillus brevis = tested on: Brevibacillus brevis; design: method as in PMID 24605144; settings: at a concentration of 185 μM; cited from earlier work
Jurkat = tested on: Jurkat; design: method as in PMID 26055397; settings: at 100 μM; cited from earlier work
mobilization of CloDF13 = experiment: mobilization by plate-conjugation assay, CloDF13; type: cell-based, E. coli; settings: 0.4 mM; helper plasmid R388, pOX38 or R100-1
Description: as §2

Bacillus cereus = tested on: Bacillus cereus; design: method as in PMID 26055397; settings: cited from earlier work
Klebsiella pneumoniae = tested on: Klebsiella pneumoniae; design: method as in PMID 26055397; settings: cited from earlier work
U937 = tested on: U937; design: method as in PMID 26055397; settings: at 100 μM; cited from earlier work
mobilization of RSF1010 = experiment: mobilization by plate-conjugation assay, RSF1010; type: cell-based, E. coli; settings: 0.4 mM; helper plasmid pRL443
Description: as §2

IncN plasmid conjugation = experiment: plate-conjugation assay, IncN plasmids; type: cell-based, E. coli; settings: 0.4 mM
Description: as §2

K562 = tested on: K562; design: method as in PMID 26055397; settings: at 100 μM; cited from earlier work
C. albicans = tested on: C. albicans; design: method as in PMID 26055397; settings: cited from earlier work
mobilization of ColE1 = experiment: mobilization by plate-conjugation assay, ColE1; type: cell-based, E. coli; settings: 0.4 mM
Description: as §2

[12] = tested on: IncFII plasmid R100-1 conjugation; experiment: plate-conjugation assay, R100-1; type: cell-based, E. coli; settings: 0.4 mM
Description: as §2

Raji = tested on: Raji; design: method as in PMID 26055397; settings: at 100 μM; cited from earlier work
Enterococcus faecalis = tested on: Enterococcus faecalis; design: method as in PMID 26055397; settings: cited from earlier work
Proteus mirabilis = tested on: Proteus mirabilis; design: method as in PMID 26055397; settings: cited from earlier work
IncP plasmid conjugation = experiment: plate-conjugation assay, IncP plasmids; type: cell-based, E. coli; settings: 0.4 mM
Description: as §2

CCCCCCCCCCCCCC#CC(=O)O [2-HDA, 2-hexadecynoic acid]
IC90 (S. aureus CECT 794): 30 µM
IC50 [1]: 40 µM
IC50 [2]: 80 µM
IC50 [3]: ~50 µM
IC50 [4]: 40 µM
IC90 (C. albicans CECT 1394): < 4 µM
IC50 [5]: 100 µM
IC90 (A. nidulans): 8 µM
IC50 [6]: 100 µM
IC90 (M. smegmatis DSMZ 43756): 8 µM

CCCCCCCCCCCCCCCC#CC(=O)O [2-ODA, 2-octadecynoic acid]
IC90 (S. aureus CECT 794): 350 µM
IC50 [1]: 70 µM
IC50 [2]: 180 µM
IC50 [3]: ~50 µM
IC50 [4]: 90 µM
IC90 (C. albicans CECT 1394): 220 µM
IC50 [5]: 90 µM
IC90 (A. nidulans): 220 µM
IC50 [6]: 150 µM
IC90 (M. smegmatis DSMZ 43756): 7 µM

CCCCC/C=C\C/C=C\CCCCCCCC(=O)O [Linoleic acid]
IC90 (S. aureus CECT 794): > 360 µM
IC50 [1]: 180 µM
IC50 [2]: 90 µM
IC90 [7]: > 100 µM
IC50 [4]: 90 µM
IC90 (C. albicans CECT 1394): > 360 µM
IC50 [5]: 300 µM
IC90 (A. nidulans): > 360 µM
IC50 [6]: 180 µM
IC50 [8]: ~50 µM
IC90 (M. smegmatis DSMZ 43756): 360 µM

CCCCCCCC/C=C\CCCCCCCC(=O)O [Oleic acid]
IC90 (S. aureus CECT 794): > 420 µM
IC50 [1]: 180 µM
IC50 [2]: 80 µM
IC90 [7]: > 100 µM
IC50 [4]: 40 µM
IC90 (C. albicans CECT 1394): > 220 µM
IC50 [5]: 350 µM
IC90 (A. nidulans): > 220 µM
IC50 [6]: 180 µM
IC50 [8]: ~50 µM
IC90 (M. smegmatis DSMZ 43756): > 420 µM

Cc1ccc2c(c1/C=C/C=C/C(=O)O)C(C)CC(C)C2 (centres unmarked) [TZA-A, tanzawaic acid A]
IC90 (S. aureus CECT 794): 230 µM
IC50 [9]: ~50 µM
IC50 [1]: 70 µM
IC50 [2]: 90 µM
IC90 [7]: > 100 µM
activity against Paecilomyces variotii (Paecilomyces variotii): weak activity
COIN activity on R388 conjugation (CF) ([10]; plate-conjugation assay): inhibited R388 conjugation to levels similar to TZA-B
IC50 [4]: 60 µM
effect on germination of Phytophthora infestans (Phytophthora infestans): not affected
activity against Mucor miehei (Mucor miehei): weak activity
IC50 (Magnaporthe oryzae): 37 µM
activity against HeLaS3 cells (HeLaS3 cells): weak activity
effect on germination of Botrytis cinerea (Botrytis cinerea): not affected
inhibition of superoxide anion production [11]: inhibitors of superoxide anion production
activity against Brevibacillus brevis (Brevibacillus brevis): weak activity
IC90 (C. albicans CECT 1394): > 230 µM
IC50 [5]: 190 µM
IC90 (A. nidulans): > 230 µM
IC50 [6]: 90 µM
IC90 (M. smegmatis DSMZ 43756): 230 µM

CC1CC(C)C2C(C=CC(C)C2C=CC=CC(=O)O)C1 (centres unmarked) [TZA-B, tanzawaic acid B]
IC90 (S. aureus CECT 794): 120 µM
R388 conjugation (relative CF) ([9]; 0.4 mM, relative to control without COINs (100%)): 2%
IC50 [9]: ~50 µM
IC50 [1]: 90 µM
IC50 [2]: 180 µM
IC90 [7]: > 100 µM
response of Jurkat cells (Jurkat): no response
effect on mobilization (MF) (mobilization of CloDF13): affected
inhibition of conjugation ([10]; 0.4 mM, IncW plasmid R388): ~100 fold
R388 conjugation (relative CF) ([10]; 0.4 mM, plate-conjugation assay): 2 ± 2%
antimicrobial activity, concentration below which no effect (Bacillus cereus): ≥ 364 µM
antimicrobial activity, concentration below which no effect (Klebsiella pneumoniae): ≥ 364 µM
IC50 [4]: 90 µM
response of U937 cells (U937): no response
effect on mobilization (MF) (mobilization of RSF1010): unaffected
effect on conjugation (IncN plasmid conjugation): not affected
response of K562 cells (K562): no response
antimicrobial activity, concentration below which no effect (C. albicans): ≥ 364 µM
effect on mobilization (MF) (mobilization of ColE1; helper plasmid R388, pOX38 or R100-1): affected
effect on mobilization (MF) (mobilization of ColE1; helper plasmid pRL443): unaffected
inhibition of superoxide anion production [11]: inhibitor of superoxide anion production
IC90 (C. albicans CECT 1394): > 230 µM
IC50 [5]: 180 µM
IC90 (A. nidulans): > 230 µM
inhibition of conjugation [12]: ~100 fold
response of Raji cells (Raji): no response
IC50 [6]: 180 µM
antimicrobial activity, concentration below which no effect (Enterococcus faecalis): ≥ 364 µM
antimicrobial activity, concentration below which no effect (Proteus mirabilis): ≥ 364 µM
IC90 (M. smegmatis DSMZ 43756): 120 µM
effect on conjugation (IncP plasmid conjugation): not affected

CC1C=CC2CC(C)(O)CC(C)C2C1/C=C/C=C/C(=O)O (centres unmarked) [TZA-E]
COIN activity on R388 conjugation (CF) ([10]; plate-conjugation assay): did not show significant COIN activity
inhibition of superoxide anion production [11]: inhibitors of superoxide anion production
